Test results from patent US7351744B2, “Naphthalene derivatives as termite repellents and toxicants” (Board of Supervisors of Louisiana State University and …, priority 2003, dated 2008).

Test system: C. formosanus workers and soldiers
Experiment: Topical application toxicity assay
Type: in vivo, Coptotermes formosanus
Procedure: Dose-mortality data were analyzed using probit analysis as adapted for PC use (POLO-PC), which automatically corrected for control mortality using Abbott's transformation. See, e.g., R. M Russell et al., “POLO: a new computer program for probit analysis,” Bull. Entomol. Soc. Am., vol. 23, pp. 209-213 (1977); and LeOra Software, “POLO-PC, a user's guide to probit analysis or logit analysis” (1987). The LD50s of workers and soldiers from four tested colonies (y) were plotted against the average weight of tested termites (x) to establish a linear regression equation and conduct correlation analyses. Mean survival, food consumption and tunnel areas were compared among treatments using analysis of variance (ANOVA), followed by least significant difference procedures. See, SAS Institute, SAS/STAT User's Guide: version 8, SAS Institute, Inc., Cary, N.C. (1999). In two-choice assays using either treated filter paper or treated sand, the parameters measured in the two lateral sides of each treatment were compared using paired t-tests. All data were judged at α=0.05.
Acute toxicity of 2′-acetonaphthone was bioassayed using doses that ranged from 1.25 to 20 ug/termite. At stock solution of 2′-acetonaphthone was prepared ([…]). Dilutions were made by taking aliquots from the stock solution (62.5, 125, 250, 375, 500, 750, and 1000 μl), and adjusting each volume to 2 ml with acetone. A group of 20 workers or soldiers (from colonies BS, WB, E and CR) were placed in a Petri dish (6 cm×1.5 cm) and chilled on top of an ice brick (30.32 cm×17.78 cm×3.81 cm; IceBerg, Mid-Lands Chemical Company, Inc., Miami, Fla.) to slow their movement. Each termite was treated with a topical dose in 0.2 μl acetone to the dorsum of the mesothorax using a Hamilton PB 600 Repeating Dispenser equipped with a 10 μl syringe (Hamilton, Reno, Nev.). The experimental termites were treated with doses equivalent to 1.25, 2.50, 5.0, 7.5, 10.0, 15.0, and 20.0 μg/termite. Control termites were dosedwith only 0.2 μl acetone. Five replicates, each with 20 workers or 20 soldiers, were used for each dose and control. For each replicate, termites were maintained in a plastic container (5.5 cm×3.7 cm, Pioneer Pckaging Co., North Dixon, Ky.), each provided with a filter paper (Whatman #2, 55 mm diameter) wetted with 250 μl double distilled water (DDH20). The containers were covered with lids, and kept for 2 days at room temperature (26-28° C.). Daily mortality in each dish was recorded. Termites were considered dead if unable to right themselves when prodded with a fine paint brush.

`CC(=O)c1ccc2ccccc2c1` [2′-acetonaphthone] was tested, and the “LD50 (95% CL)” value (colony BS, 24 hours, Soldier) was 3.24 (2.27-4.24) μg/termite, the “LD90 (95% CL)” value (colony BS, 24 hours, Soldier) was 13.60 (8.86-15.01) μg/termite and the “LD50 (95% CL)” value (colony BS, 24 hours, Worker) was 2.21 (1.91-2.49) μg/termite. The “LD90 (95% CL)” value (colony BS, 24 hours, Worker) was 7.11 (6.14-8.58) μg/termite, the “LD50 (95% CL)” value (colony BS, 48 hours, Soldier) was 2.02 (1.49-2.46) μg/termite and the “LD90 (95% CL)” value (colony BS, 48 hours, Soldier) was 4.07 (3.37-5.37) μg/termite. The “LD50 (95% CL)” value (colony BS, 48 hours, Worker) was 1.74 (1.49-1.96) μg/termite, the “LD90 (95% CL)” value (colony BS, 48 hours, Worker) was 4.19 (3.73-4.83) μg/termite and the “LD50 (95% CL)” value (colony CR, 24 hours, Soldier) was 3.49 (2.49-4.51) μg/termite. The “LD90 (95% CL)” value (colony CR, 24 hours, Soldier) was 8.09 (5.94-16.01) μg/termite, the “LD50 (95% CL)” value (colony CR, 24 hours, Worker) was 2.93 (2.24-3.59) μg/termite and the “LD90 (95% CL)” value (colony CR, 24 hours, Worker) was 7.23 (5.59-11.34) μg/termite. The “LD50 (95% CL)” value (colony CR, 48 hours, Soldier) was 2.02 (1.48-2.48) μg/termite, the “LD90 (95% CL)” value (colony CR, 48 hours, Soldier) was 4.26 (3.45-5.92) μg/termite and the “LD50 (95% CL)” value (colony CR, 48 hours, Worker) was 2.67 (1.87-3.35) μg/termite. The “LD90 (95% CL)” value (colony CR, 48 hours, Worker) was 6.09 (4.85-8.82) μg/termite, the “LD50 (95% CL)” value (colony E, 24 hours, Soldier) was 5.12 (3.99-7.24) μg/termite and the “LD90 (95% CL)” value (colony E, 24 hours, Soldier) was 14.06 (9.51-19.26) μg/termite. The “LD50 (95% CL)” value (colony E, 24 hours, Worker) was 7.24 (5.22-9.36) μg/termite, the “LD90 (95% CL)” value (colony E, 24 hours, Worker) was 19.69 (14.02-25.58) μg/termite and the “LD50 (95% CL)” value (colony E, 48 hours, Soldier) was 4.19 (3.14-6.20) μg/termite. For the same molecule, the “LD90 (95% CL)” value (colony E, 48 hours, Soldier) was 12.32 (8.23-15.32) μg/termite, the “LD50 (95% CL)” value (colony E, 48 hours, Worker) was 3.82 (2.68-5.83) μg/termite and the “LD90 (95% CL)” value (colony E, 48 hours, Worker) was 11.77 (7.66-17.79) μg/termite. The “LD50 (95% CL)” value (colony WB, 24 hours, Soldier) was 2.16 (0.56-6.23) μg/termite, the “LD90 (95% CL)” value (colony WB, 24 hours, Soldier) was 5.48 (1.42-15.81) μg/termite and the “LD50 (95% CL)” value (colony WB, 24 hours, Worker) was 1.75 (0.76-2.76) μg/termite. For the same molecule, the “LD90 (95% CL)” value (colony WB, 24 hours, Worker) was 6.33 (3.71-12.46) μg/termite, the “LD50 (95% CL)” value (colony WB, 48 hours, Soldier) was 2.17 (0.49-5.76) μg/termite and the “LD90 (95% CL)” value (colony WB, 48 hours, Soldier) was 5.59 (1.23-14.49) μg/termite. The “LD50 (95% CL)” value (colony WB, 48 hours, Worker) was 1.71 (0.42-1.95) μg/termite, the “LD90 (95% CL)” value (colony WB, 48 hours, Worker) was 3.09 (2.70-3.72) μg/termite and the “48 h-LD90” value (soldiers, range over the four colonies) was 4.07-12.32 μg/soldier.
